For 18 molecules, T/C results are on record in PubChem BioAssay AID248 (DTP/NCI, 2004).

The test system of the experiment is L1210 leukemia ip in BDF1 mice, survival T/C. The experiment in a line: NCI In Vivo Anticancer Drug Screen. Data for tumor model L1210 Leukemia (intraperitoneal) in B6D2F1 (BDF1) mice. To be noted: endpoint: mean survival time, higher = longer survival. The gist of the method: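 Transplanted-tumor mice were given test agent; controls received vehicle only. Survival readings from the two groups were divided (treated over control).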

[1] abbreviates: dose: 100.0 mg/kg/injection, schedule: Q04DX003 (ip), vehicle: Klucel (hydroxypropylcellulose) (HPC).
Where [2] appears, read: dose: 200.0 mg/kg/injection, schedule: Q04DX003 (ip), vehicle: Klucel (hydroxypropylcellulose) (HPC).
[3] abbreviates: dose: 400.0 mg/kg/injection, schedule: Q04DX003 (ip), vehicle: Klucel (hydroxypropylcellulose) (HPC).
The mark [4] stands for this setting: dose: 12.5 mg/kg/injection, schedule: Q01DX009 (ip), vehicle: saline.
Where [5] appears, read: dose: 25.0 mg/kg/injection, schedule: Q01DX009 (ip), vehicle: saline.
Where [6] appears, read: dose: 50.0 mg/kg/injection, schedule: Q01DX009 (ip), vehicle: saline.
The mark [7] stands for this setting: dose: 100.0 mg/kg/injection, schedule: Q01DX009 (ip), vehicle: saline.
The mark [8] stands for this setting: dose: 100.0 mg/kg/injection, schedule: Q01DX001 (ip), vehicle: carboxymethylcellulose (CMC).
The mark [9] stands for this setting: dose: 200.0 mg/kg/injection, schedule: Q01DX001 (ip), vehicle: carboxymethylcellulose (CMC).
Setting [10] is: dose: 400.0 mg/kg/injection, schedule: Q01DX001 (ip), vehicle: carboxymethylcellulose (CMC).

Values joined by “and” are separate entries in the source; they are usually repeats but may differ in a detail not shown here. Equal values may be shown once. Toxic doses and inconclusive results are not listed.

As to `CC(=O)OC1CCC2(C)C(=CCC3C2CCC2(C)C(OC(=O)c4ccccc4)CCC32)C1` (stereo unspecified), the T/C runs as follows: (dose: 100.0 mg/kg/injection, schedule: Q01DX009 (ip), vehicle: saline with Tween-80) 89 % of control; (dose: 200.0 mg/kg/injection, schedule: Q01DX009 (ip), vehicle: saline with Tween-80) 110 % of control; (dose: 400.0 mg/kg/injection, schedule: Q01DX009 (ip), vehicle: saline with Tween-80) 96 % of control.
`CC1Cc2cccc3cc4c(ccc5ccccc54)c1c23` (stereo unspecified): the T/C (dose: 100.0 mg/kg/injection, schedule: Q01DX001 (ip), vehicle: Klucel (hydroxypropylcellulose) (HPC)) is 98 % of control and 104 % of control; the T/C (dose: 200.0 mg/kg/injection, schedule: Q01DX001 (ip), vehicle: Klucel (hydroxypropylcellulose) (HPC)) is 97 % of control and 103 % of control; the T/C (dose: 400.0 mg/kg/injection, schedule: Q01DX001 (ip), vehicle: Klucel (hydroxypropylcellulose) (HPC)) is 95 % of control and 110 % of control.
For `O=C(CCc1cccnc1)Nc1ccccc1`, the T/C runs as follows: under setting [1], 102 % of control; under setting [2], 100 % of control; under setting [3], 94 % of control.
With `O=C1NC(=O)C2(CCc3ccccc3C2)N1` (stereo unspecified), the T/C (dose: 50.0 mg/kg/injection, schedule: Q01DX009 (ip), vehicle: Klucel (hydroxypropylcellulose) (HPC)) was 96 % of control; the T/C (dose: 100.0 mg/kg/injection, schedule: Q01DX009 (ip), vehicle: Klucel (hydroxypropylcellulose) (HPC)) was 96 % of control; the T/C under setting [1] is 100 % of control; the T/C (dose: 100.0 mg/kg/injection, schedule: Q04DX003 (ip), vehicle: acetone) is 96 % of control; the T/C (dose: 200.0 mg/kg/injection, schedule: Q01DX009 (ip), vehicle: Klucel (hydroxypropylcellulose) (HPC)) is 93 % of control; the T/C under setting [2] was 97 % of control. Moreover, the T/C runs as follows: (dose: 200.0 mg/kg/injection, schedule: Q04DX003 (ip), vehicle: acetone) 95 % of control; under setting [3], 97 % of control; (dose: 400.0 mg/kg/injection, schedule: Q04DX003 (ip), vehicle: acetone) 95 % of control.
In the case of `NC(=O)C1C2C=CC(O2)C1C(=O)O` (stereo unspecified), the T/C was 111 % of control (dose: 12.5 mg/kg/injection, schedule: Q04DX002 (ip), vehicle: saline); 97 % of control (dose: 25.0 mg/kg/injection, schedule: Q04DX002 (ip), vehicle: saline); 103 % of control (dose: 50.0 mg/kg/injection, schedule: Q04DX002 (ip), vehicle: saline).
`CCCCOc1ccc(/C=N/NC(=O)CNC(=O)Nc2cccc(C(F)(F)F)c2)cc1`: the T/C (dose: 100.0 mg/kg/injection, schedule: Q01DX009 (ip), vehicle: gum acacia) was 86 % of control; the T/C (dose: 200.0 mg/kg/injection, schedule: Q01DX009 (ip), vehicle: gum acacia) is 93 % of control; the T/C (dose: 400.0 mg/kg/injection, schedule: Q01DX009 (ip), vehicle: gum acacia) is 96 % of control.
With `CC(O)(CC(c1ccccc1)N1CCc2ccccc2C1)c1ccccc1` (stereo unspecified), the T/C by setting is: (dose: 100.0 mg/kg/injection, schedule: Q04DX003 (ip), vehicle: saline) 105 % of control; (dose: 200.0 mg/kg/injection, schedule: Q04DX003 (ip), vehicle: saline) 102 % of control; (dose: 400.0 mg/kg/injection, schedule: Q04DX003 (ip), vehicle: saline) 96 % of control.
Regarding `CC(NC(=O)OCc1ccccc1)C(=O)NC(CSCc1ccccc1)C(=O)O` (stereo unspecified), the T/C runs as follows: (dose: 100.0 mg/kg/injection, schedule: Q04DX003 (ip), vehicle: saline with Tween-80) 97 % of control; (dose: 200.0 mg/kg/injection, schedule: Q04DX003 (ip), vehicle: saline with Tween-80) 97 % of control; (dose: 400.0 mg/kg/injection, schedule: Q04DX003 (ip), vehicle: saline with Tween-80) 97 % of control.
`Cc1cccc(-n2c(N)cc(=O)[nH]c2=S)n1`: the T/C is, setting by setting: under setting [4], 97 % of control; (dose: 12.5 mg/kg/injection, schedule: Q04DX003 (ip), vehicle: saline) 96 % of control; under setting [5], 96 % of control; (dose: 25.0 mg/kg/injection, schedule: Q04DX003 (ip), vehicle: saline) 96 % of control; under setting [6], 94 % of control and 105 % of control; (dose: 50.0 mg/kg/injection, schedule: Q04DX003 (ip), vehicle: saline) 91 % of control. Under setting [7], the T/C is 87 % of control.
For `c1ccc(CC2CCCC2)cc1`, the T/C is 93 % of control under setting [1]; 95 % of control under setting [2]; 106 % of control (dose: 300.0 mg/kg/injection, schedule: Q04DX003 (ip), vehicle: Klucel (hydroxypropylcellulose) (HPC)).
As to `CC(=O)CC(=O)C(F)(F)F.CC(=O)CC(=O)C(F)(F)F.[O]=[V]`, the T/C is, setting by setting: (dose: 25.0 mg/kg/injection, schedule: Q04DX003 (ip), vehicle: Klucel (hydroxypropylcellulose) (HPC)) 100 % of control; (dose: 50.0 mg/kg/injection, schedule: Q04DX003 (ip), vehicle: Klucel (hydroxypropylcellulose) (HPC)) 107 % of control; under setting [1], 96 % of control.
As to `CC12CCC3c4ccc(Oc5ccc(N)cc5)cc4CCC3C1CCC2=O` (stereo unspecified), the T/C (dose: 100.0 mg/kg/injection, schedule: Q01DX001 (sc), vehicle: steriod suspending solution) is 101 % of control; the T/C (dose: 200.0 mg/kg/injection, schedule: Q01DX001 (sc), vehicle: steriod suspending solution) was 95 % of control; the T/C (dose: 400.0 mg/kg/injection, schedule: Q01DX001 (sc), vehicle: steriod suspending solution) is 101 % of control.
For `C#CC(OC(=O)NC1CCCCC1)(c1ccccc1)c1ccccc1`, the T/C (dose: 3.0 mg/kg/injection, schedule: Q01DX009 (ip), vehicle: carboxymethylcellulose (CMC)) is 101 % of control; the T/C (dose: 6.0 mg/kg/injection, schedule: Q01DX009 (ip), vehicle: carboxymethylcellulose (CMC)) is 100 % of control; the T/C (dose: 6.25 mg/kg/injection, schedule: Q01DX009 (ip), vehicle: saline with Tween-80) is 106 % of control; the T/C (dose: 12.0 mg/kg/injection, schedule: Q01DX009 (ip), vehicle: carboxymethylcellulose (CMC)) was 110 % of control; the T/C (dose: 12.5 mg/kg/injection, schedule: Q01DX009 (ip), vehicle: saline with Tween-80) was 106 % of control; the T/C under setting [4] was 106 % of control. The T/C by setting is: (dose: 25.0 mg/kg/injection, schedule: Q01DX009 (ip), vehicle: carboxymethylcellulose (CMC)) 116 % of control; under setting [5], 114 % of control; under setting [6], 157 % of control; (dose: 88.0 mg/kg/injection, schedule: Q04DX003 (ip), vehicle: saline sonified) 107 % of control; under setting [8], 97 % of control; (dose: 100.0 mg/kg/injection, schedule: Q01DX009 (ip), vehicle: saline sonified) 96 % of control. Besides, the T/C was 97 % of control under setting [7]; 110 % of control (dose: 132.0 mg/kg/injection, schedule: Q04DX003 (ip), vehicle: saline sonified); 104 % of control under setting [9]; 110 % of control (dose: 300.0 mg/kg/injection, schedule: Q04DX003 (ip), vehicle: saline sonified); 116 % of control under setting [10].
Consider `Cc1c(C2CCC(=O)C2)c2ccccc2n1C` (stereo unspecified), for which the T/C was 93 % of control under setting [8], 89 % of control under setting [9] and 88 % of control under setting [10].
As for `O/N=C1\c2cc(Cl)ccc2-c2c(Cl)cc(Cl)cc21`, the T/C runs as follows: under setting [8], 115 % of control; under setting [9], 100 % of control; under setting [10], 97 % of control.
As to `O=C(O)C12CCC(CC1)C1CCC2CC1`, the T/C is, setting by setting: (dose: 12.5 mg/kg/injection, schedule: Q04DX002 (ip), vehicle: Klucel (hydroxypropylcellulose) (HPC)) 101 % of control; (dose: 25.0 mg/kg/injection, schedule: Q04DX002 (ip), vehicle: Klucel (hydroxypropylcellulose) (HPC)) 105 % of control; (dose: 50.0 mg/kg/injection, schedule: Q04DX002 (ip), vehicle: Klucel (hydroxypropylcellulose) (HPC)) 116 % of control.
`COc1ccc(Nc2cc(N)nc(N)n2)cc1`: the T/C reads like this: (dose: 25.0 mg/kg/injection, schedule: Q01DX Z (ip), vehicle: methylcellulose (MC)) 93 % of control; (dose: 50.0 mg/kg/injection, schedule: Q01DX Z (ip), vehicle: methylcellulose (MC)) 87 % of control.
As to `CCOc1ccc(NC(C)=O)c(O)c1`, the T/C (dose: 75.0 mg/kg/injection, schedule: Q01DX001 (ip), vehicle: saline) was 101 % of control and the T/C (dose: 150.0 mg/kg/injection, schedule: Q01DX001 (ip), vehicle: saline) was 98 % of control.
